Reference: PubChem BioAssay (NCI)
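Interpolation was linear, between the two tested concentrations surrounding the appropriate level; five concentrations were tested over 48 hours in 96-well plates. TGI denotes the concentration required for complete inhibition of growth.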

Assays:
Test in all cases: NCI-60 cell line screen, 48 h
U251 CNS = test system: U251 CNS
SF-539 CNS = test system: SF-539 CNS
T-47D breast = test system: T-47D breast
OVCAR-5 ovarian = test system: OVCAR-5 ovarian
HOP-62 NSCLC = test system: HOP-62 NSCLC
KM12 colon = test system: KM12 colon
OVCAR-8 ovarian = test system: OVCAR-8 ovarian
K-562 leukemia = test system: K-562 leukemia
OVCAR-3 ovarian = test system: OVCAR-3 ovarian
NCI-H460 lung = test system: NCI-H460 lung
MCF7 breast = test system: MCF7 breast
UACC-62 melanoma = test system: UACC-62 melanoma
SK-MEL-5 melanoma = test system: SK-MEL-5 melanoma
HOP-92 NSCLC = test system: HOP-92 NSCLC
TK-10 renal = test system: TK-10 renal
UO-31 renal = test system: UO-31 renal
SF-268 CNS = test system: SF-268 CNS
CCRF-CEM leukemia = test system: CCRF-CEM leukemia
786-0 renal = test system: 786-0 renal
SN12C renal = test system: SN12C renal
CAKI-1 renal = test system: CAKI-1 renal
EKVX NSCLC = test system: EKVX NSCLC
SNB-19 CNS = test system: SNB-19 CNS
M14 melanoma = test system: M14 melanoma
IGROV1 ovarian = test system: IGROV1 ovarian
COLO 205 colon = test system: COLO 205 colon
MOLT-4 leukemia = test system: MOLT-4 leukemia
BT-549 breast = test system: BT-549 breast
HCT-15 colon = test system: HCT-15 colon
SF-295 CNS = test system: SF-295 CNS
HL-60(TB) leukemia = test system: HL-60(TB) leukemia
NCI-H522 lung = test system: NCI-H522 lung
HCT-116 colon = test system: HCT-116 colon
UACC-257 melanoma = test system: UACC-257 melanoma
DU-145 prostate = test system: DU-145 prostate
SNB-75 CNS = test system: SNB-75 CNS
SK-MEL-2 melanoma = test system: SK-MEL-2 melanoma
ACHN renal = test system: ACHN renal
SW-620 colon = test system: SW-620 colon
LOX IMVI melanoma = test system: LOX IMVI melanoma
HT29 colon = test system: HT29 colon
PC-3 prostate = test system: PC-3 prostate
NCI-H23 lung = test system: NCI-H23 lung
RXF 393 renal = test system: RXF 393 renal
MDA-N = test system: MDA-N
SR leukemia = test system: SR leukemia
NCI-H226 lung = test system: NCI-H226 lung
SK-MEL-28 melanoma = test system: SK-MEL-28 melanoma
NCI/ADR-RES ovarian = test system: NCI/ADR-RES ovarian
MDA-MB-231 breast = test system: MDA-MB-231 breast
RPMI-8226 leukemia = test system: RPMI-8226 leukemia
OVCAR-4 ovarian = test system: OVCAR-4 ovarian
HCC-2998 colon = test system: HCC-2998 colon
MDA-MB-435 = test system: MDA-MB-435
MALME-3M melanoma = test system: MALME-3M melanoma
HS 578T breast = test system: HS 578T breast
A498 renal = test system: A498 renal
A549 NSCLC = test system: A549 NSCLC
SK-OV-3 ovarian = test system: SK-OV-3 ovarian

`Sc1nnc(-c2ccccc2Nc2ccccc2-c2nnc(S)n2-c2ccccc2)n1-c1ccccc1` was tested, and the TGI (U251 CNS) was over 100 µM, the TGI (SF-539 CNS) was over 100 µM and the TGI (T-47D breast) was 88.2 µM. The TGI (OVCAR-5 ovarian) was over 100 µM, the TGI (HOP-62 NSCLC) was over 100 µM and the TGI (KM12 colon) was over 100 µM. It also gave a TGI (OVCAR-8 ovarian) of over 100 µM, a TGI (K-562 leukemia) of over 100 µM and a TGI (OVCAR-3 ovarian) of over 100 µM. It also gave a TGI (NCI-H460 lung) of over 100 µM, a TGI (MCF7 breast) of over 100 µM and a TGI (UACC-62 melanoma) of over 100 µM. The TGI (SK-MEL-5 melanoma) was 80.9 µM, the TGI (HOP-92 NSCLC) was 48.2 µM and the TGI (TK-10 renal) was over 100 µM. It also gave a TGI (UO-31 renal) of over 100 µM, a TGI (SF-268 CNS) of over 100 µM and a TGI (CCRF-CEM leukemia) of over 100 µM. For the same compound, the TGI (786-0 renal) was over 100 µM, the TGI (SN12C renal) was 72.9 µM and the TGI (CAKI-1 renal) was over 100 µM. The TGI (EKVX NSCLC) was 97.9 µM, the TGI (SNB-19 CNS) was over 100 µM and the TGI (M14 melanoma) was over 100 µM. For the same compound, the TGI (IGROV1 ovarian) was 42.2 µM, the TGI (COLO 205 colon) was over 100 µM and the TGI (MOLT-4 leukemia) was 78.9 µM. It also gave a TGI (BT-549 breast) of over 100 µM, a TGI (HCT-15 colon) of over 100 µM and a TGI (SF-295 CNS) of over 100 µM. The TGI (HL-60(TB) leukemia) was 67.1 µM, the TGI (NCI-H522 lung) was 81.8 µM and the TGI (HCT-116 colon) was over 100 µM. For the same compound, the TGI (UACC-257 melanoma) was over 100 µM, the TGI (DU-145 prostate) was over 100 µM and the TGI (SNB-75 CNS) was 90.8 µM. For the same compound, the TGI (SK-MEL-2 melanoma) was 84.2 µM, the TGI (ACHN renal) was over 100 µM and the TGI (SW-620 colon) was 81.9 µM. For the same compound, the TGI (LOX IMVI melanoma) was over 100 µM, the TGI (HT29 colon) was over 100 µM and the TGI (PC-3 prostate) was over 100 µM. For the same compound, the TGI (NCI-H23 lung) was over 100 µM, the TGI (RXF 393 renal) was over 100 µM and the TGI (MDA-N) was 85.3 µM. It also gave a TGI (SR leukemia) of over 100 µM, a TGI (NCI-H226 lung) of over 100 µM and a TGI (SK-MEL-28 melanoma) of 44.7 µM. For the same compound, the TGI (NCI/ADR-RES ovarian) was over 100 µM, the TGI (MDA-MB-231 breast) was 89.6 µM and the TGI (RPMI-8226 leukemia) was 48 µM. The TGI (OVCAR-4 ovarian) was over 100 µM, the TGI (HCC-2998 colon) was over 100 µM and the TGI (MDA-MB-435) was 53 µM.

With `N#CSCC1COc2ccccc2O1` (centres undefined) the TGI (U251 CNS) was over 10 µM, the TGI (SF-539 CNS) was over 10 µM and the TGI (T-47D breast) was over 10 µM. The TGI (OVCAR-5 ovarian) was over 10 µM, the TGI (HOP-62 NSCLC) was over 10 µM and the TGI (KM12 colon) was over 10 µM. It also gave a TGI (OVCAR-8 ovarian) of over 10 µM, a TGI (K-562 leukemia) of over 10 µM and a TGI (OVCAR-3 ovarian) of over 10 µM. The TGI (NCI-H460 lung) was over 10 µM, the TGI (MCF7 breast) was over 10 µM and the TGI (UACC-62 melanoma) was over 10 µM. The TGI (SK-MEL-5 melanoma) was over 10 µM, the TGI (TK-10 renal) was over 10 µM and the TGI (UO-31 renal) was over 10 µM. For the same compound, the TGI (SF-268 CNS) was over 10 µM, the TGI (CCRF-CEM leukemia) was 8.3 µM and the TGI (SN12C renal) was over 10 µM. The TGI (CAKI-1 renal) was over 10 µM, the TGI (EKVX NSCLC) was over 10 µM and the TGI (SNB-19 CNS) was over 10 µM. The TGI (M14 melanoma) was over 10 µM, the TGI (IGROV1 ovarian) was over 10 µM and the TGI (COLO 205 colon) was over 10 µM. It also gave a TGI (MOLT-4 leukemia) of over 10 µM, a TGI (MALME-3M melanoma) of over 10 µM and a TGI (HS 578T breast) of over 10 µM. It also gave a TGI (HCT-15 colon) of over 10 µM, a TGI (SF-295 CNS) of over 10 µM and a TGI (HL-60(TB) leukemia) of 8.66 µM. For the same compound, the TGI (NCI-H522 lung) was 7.05 µM, the TGI (HCT-116 colon) was over 10 µM and the TGI (DU-145 prostate) was over 10 µM. For the same compound, the TGI (SNB-75 CNS) was over 10 µM, the TGI (SK-MEL-2 melanoma) was over 10 µM and the TGI (ACHN renal) was over 10 µM. The TGI (A498 renal) was over 10 µM, the TGI (SW-620 colon) was over 10 µM and the TGI (LOX IMVI melanoma) was over 10 µM. The TGI (HT29 colon) was over 10 µM, the TGI (PC-3 prostate) was over 10 µM and the TGI (NCI-H23 lung) was over 10 µM. For the same compound, the TGI (A549 NSCLC) was over 10 µM, the TGI (RXF 393 renal) was over 10 µM and the TGI (MDA-N) was over 10 µM. The TGI (SR leukemia) was over 10 µM, the TGI (NCI-H226 lung) was over 10 µM and the TGI (SK-MEL-28 melanoma) was over 10 µM. The TGI (NCI/ADR-RES ovarian) was over 10 µM, the TGI (MDA-MB-231 breast) was over 10 µM and the TGI (RPMI-8226 leukemia) was over 10 µM. The TGI (SK-OV-3 ovarian) was over 10 µM, the TGI (OVCAR-4 ovarian) was over 10 µM and the TGI (HCC-2998 colon) was over 10 µM. The TGI (MDA-MB-435) was over 10 µM.
